# Measurements: patent US10076505B2, “Inhalation formulations of Treprostinil” (priority 2003, dated 2018)
# “And” between values parts separate entries of the source, which are not always exact repeats. Identical values can stand only once.
# Experiments:
# critical limb ischemia = test: Open-label study of subcutaneous treprostinil in critical limb ischemia (Example X); assay type: in vivo, human
# Excerpt: The planned enrollment was ten patients. All patients were to have Fontaine Stage III-IV or Rutherford Class 4-6 disease and ankle brachial indexes (ABI) from 0-0.55 in the most affected limb or the limb containing the reference ischemic wound for wound healing assessments. […] Any condition or abnormal laboratory value which, based on information in the treprostinil package insert, would constitute an unacceptable risk to the patient's safety, also was an exclusion criterion. Patients could not have been in an investigational trial within the past 30 days or been a non-responder to chronic prostanoid treatment in the past 30 days.
# After the completion of baseline assessments, treprostinil therapy was initiated in the clinic. […] Patients and/or a caregiver were trained to administer treprostinil on an outpatient basis using an ambulatory subcutaneous infusion pump (Minimed, Sylmar, Calif., Model 407C). Each patient was to be initiated at a dose of 2.5 ng/kg/min or lower, with the dose titrated based on tolerability. Dose increases were to be 1.25-2.5 ng/kg/min per week. The maximum allowed dose was 15 ng/kg/min and the minimum allowed dose was 0.625 ng/kg/min. The patients were instructed to change the subcutaneous infusion site every three days.
# Patients returned to the clinic for assessments at Weeks 2, 6, and 12. Treprostinil treatment was terminated by gradually decreasing the infusion rate (over a period of 1-4 hours, as clinically indicated) after the Week 12 visit assessments were completed.
# Safety was assessed in all patients using adverse event (AEs) and physical examination findings. Signs and symptoms of CLI or worsening CLI were not considered to be AEs unless found to be different in causality, intensity, or frequency.
# Rest pain was assessed in all patients using a visual analog scale (VAS) for rest pain. The patients were asked to rate their leg pain on a scale of 0-10 with 0 reflecting no pain and 10 reflecting the worst pain. The scale was printed and the patients were asked to place a mark on the number that reflected their pain experience. Patients were asked to rate the worst pain they had experienced since the previous assessment and their average pain during that time frame. Analgesic medication use was assessed by the investigator as unchanged, increased, decreased, or discontinued.
# Wound assessments were to be conducted in patients who had at least one ischemic wound at baseline. If the patient had multiple ischemic wounds, then one or two (usually the largest or most severe wounds) were be selected as reference wounds. The selected wound(s) was photographed for documentation. When possible, the outside edge of the wound(s) was traced for area measurement. The tracings were used to calculate wound area by measuring the length and width of the wound. Not all wounds were of the nature that tracings were possible for example, wounds between toes or on the heel with extensive tissue loss were not traced. These wounds were described and photographed.
# In patients who had wounds other than those chosen as reference wounds, the overall status (i.e., worse, the same, improved, or healed) of each additional wound also was documented at each study visit. Any new wounds that occurred during the study also were carefully documented.
# digital ischemic lesions = test: Subcutaneous Treprostinil in scleroderma patients with digital ischemic lesions (Example VII); assay type: in vivo, human; settings: continuous subcutaneous infusion, 12 weeks, increasing dose
# Experimental: Scleroderma patients having at least one lesion (i.e., small sore or area of tissue gangrene) present on a hand or finger are dosed with increasing amounts of Treprostinil over 12 weeks. The medication is delivered by a small pump that is connected to a catheter placed under the skin. In this manner, increasing dosages of Treprostinil are administered to patients by chronic continuous subcutaneous infusion. Specifically, a 1.0 mg/mL formulation of Treprostinil sodium) (REMODULIN®) is administered subcutaneously using a standard micro-infusion, positive-pressure infusion pump designed for subcutaneous drug delivery (Mini-Med). Patients receive an initial dose of 2.5 ng/kg/min of study drug. […] After that, the dose is raised by 2.50 ng/kg/min each week until not tolerated or once a target dose is reached. Dosing is increased weekly unless not tolerated by the patient. […] One example of a target dose is 15 ng/kg/min. The minimum dose is usually not less than 0.625 ng/kg/min.
# [1] = individual patients 1-10 (one table line each), versus baseline pain medication, listed as treprostinil
compound,measurement,setting,value
"CCCCC[C@H](O)CC[C@@H]1[C@H]2Cc3cccc(OCC(=O)O)c3C[C@H]2C[C@H]1O [UT-15, 9-deoxy-2′,9-alpha-methano-3-oxa-4,5,6-trinor-3,7-(1′,3′-interphenylene)-13,14-dihydro-prostaglandin F1]",wounds during the twelve weeks of drug treatment,critical limb ischemia; Patient 3,remained stable
same,average rest pain score,"critical limb ischemia; Patient 3, 7 at baseline",4
same,worst rest pain score,"critical limb ischemia; Patient 3, reduced from 8",4
same,reduction in average rest pain,critical limb ischemia; baseline to week 12,58%
same,reduction in the worst rest pain,critical limb ischemia; baseline to week 12,64%
same,relation of SAEs to treprostinil,"critical limb ischemia; cholecystectomy, worsening congestive heart failure",unlikely to be related
same,pain relief,critical limb ischemia; conclusion of study,pain relief in all patients
same,Pain Medication Consumption Week 2,critical limb ischemia; [1],No change (5×) and Less (4×) and PERCOCET ®
same,Pain Medication Consumption Week 6,critical limb ischemia; [1],Less (5×) and Increased and No change (2×) and None and Discontinued
same,Pain Medication Consumption Week 12,critical limb ischemia; [1],Darvocet and PERCOCET ® and None (2×) and No change (4×)
same,patients who discontinued drug prematurely,critical limb ischemia; of ten patients,Two
same,patients with complete healing of their wounds,critical limb ischemia; of ten patients,Three
same,patients with diarrhea,critical limb ischemia; of ten patients,one
same,patients with mild headache,critical limb ischemia; of ten patients,one
same,patients with mild jaw pain,critical limb ischemia; of ten patients,Two
same,week of complete wound closure,"critical limb ischemia; patient 5, 15 ng/kg/min",6 week
same,week of complete resolution of rest pain,"critical limb ischemia; patient 7, 7.5 ng/kg/min",6 week
same,week of complete wound closure,"critical limb ischemia; patient 7, 7.5 ng/kg/min",12 week
same,week of complete resolution of ischemic rest pain,"critical limb ischemia; patient 10, 15 ng/kg/min",2 week
same,week of complete wound closure,"critical limb ischemia; patient 10, 15 ng/kg/min",12 week
same,new wounds during the trial,critical limb ischemia; ten patients,No patient developed a new wound
same,serious adverse events (SAEs),critical limb ischemia; ten patients,two
same,most common side effect,"critical limb ischemia; ten patients, sc infusion up to 15 ng/kg/min",infusion site pain
same,"patients switched to a non-sedating, non-narcotic pain medication",critical limb ischemia; week 12,one
same,patients with complete pain relief who discontinued all pain medications,critical limb ischemia; week 12,two
same,patients with increased consumption of pain medication,critical limb ischemia; week 12,one
same,patients with medication usage unchanged from baseline,critical limb ischemia; week 12,4 patients
same,patients with reduced pain medication consumption,critical limb ischemia; week 12,three
same,"average rest pain, mean VAS (0-10)","critical limb ischemia; week 12, baseline mean 7.1",2.4
same,"worst rest pain, mean VAS (0-10)","critical limb ischemia; week 12, baseline mean 8.4",2.5
same,lesions present before treatment,digital ischemic lesions,"reduction in the number, size and severity"
same,new lesions associated with scleroderma,digital ischemic lesions,fewer new lesions
